Measurements taken from patent publication US20060147898A1, “Cell microchip” (NITTO DENKO CORPORATION, priority 2003, published 2006).

System: rat breast cancer cell MTF7
Test: Action of 5ALA on MTF7 cells in the cell microchip (fluorescence and growth after Ar ion laser irradiation)
Assay type: cell-based
Method: The cell microchip prepared in Example 1 was used to examine the action of […] (5ALA) on rat breast cancer cell MTF7 according to a method described in Journal of Japan Society for Laser Surgery and Medicine, Vol. 17, No. 1, pp. 1-10 (1996).
MTF7 was provided by Dr. Stephan P. Tomasovic, M. D. Anderson Cancer Center, […], US. MTF7 was proliferated in an a-MEM medium (Sigma Corporation) supplemented with 10% fetal calf serum (FCS) in an incubator for cell culture (37° C. in 5% CO2 under humidity).
The cell microchip (FIG. 4) prepared in Example 1 was placed in a 90 mmf Petri dish, and the flow channel (A) 33, flow channel (B) 34 and flow channel (C) 35 were filled with the above medium. […]
Then the cell microchip wherein the MTF7 cells had been proliferated was removed from the Petri dish, and the above medium was injected via a micro pump into the liquid reservoir 37 of the flow channel (A) 33, and while the above medium containing 5ALA manufactured by Sigma Corporation) at various concentrations (25, 50, 100, 200 and 400 mg/ml) was injected into the liquid reservoir 37 of the flow channel (B) 34, the cells were observed under a fluorescence microscope equipped with the incubator. […] The cells into which the 5ALA-containing medium had not been injected emitted no fluorescence.

`NCC(=O)CCC(=O)O` [5ALA, d-aminolevulinic acid] was tested, and the “emission of fluorescence under a fluorescence microscope” value (MTF7 cells at 3-pronged junction, medium containing 5ALA at 25, 50, 100, 200 and 400 mg/ml, irradiated with Ar ion laser at 488 nm, 200 mW) was “emission of fluorescence was observed” and the “cell growth / survival on continued culture after laser irradiation” value (MTF7 cells emitting fluorescence (5ALA-containing medium), observed with time under a microscope after Ar ion laser irradiation at 488 nm) was “terminated their growth and fell eventually into death”.
